In patent US8795691B2, “Nanotubes and compositions thereof” (Brown University, priority 2010, dated 2014):

Tests used:
Type in all cases: cell-based
[1] = test system: rat skin fibroblast cell line (FR, ATCC, CRL-1213); assay: Fibroblast adhesion on RNT-coated titanium; conditions: 4 h, FIG. 7
Method: (§1) Titanium (Ti) (1 cm×1 cm×0.05 cm) (Alfa Aesar Ti foil) and glass coverslips were soaked in acetone for 15 min, sonicated for 15 min in acetone, and rinsed with dH2O. They were then soaked and sonicated in 70% ethanol and rinsed with dH2O. Lastly, they were soaked and sonicated in dH2O for another 15 min and rinsed. The glass was then etched in 1 M NaOH for 1 h and thoroughly rinsed in dH2O. All of the Ti and glass coverslips were oven-dried overnight and autoclaved for sterilization. The day before cell seeding, the cleaned Ti substrates were coated with the various RNTs (0.01 mg/mL) and KRSR peptide (0.01 mg/mL) solutions for 45 min at room temperature. They were then removed from the solutions and air-dried overnight. […]
(§2) Osteoblasts, fibroblasts and endothelial cells were seeded onto the substrates at a density of 3500 cells/cm^2 and were incubated in the cell culture medium (specifically, DMEM supplemented with FBS and P/S for osteoblasts, EMEM supplemented with FBS for fibroblasts and MCDB-131 complete medium for endothelial cells) for 4 h. […] The cell density was then determined by counting cells using Image Pro Analyzer. […]
(§3) Data are presented as the mean value±the standard error of the mean and were analyzed with a student's t-test to make pair-wise comparisons. […]

[2] = test system: human fetal osteoblast cell line (ATCC, CRL-11372); assay: Osteoblast adhesion on RNT-coated titanium; conditions: coated on Ti, 4 h, FIG. 5
Method: as §1, §2, §3

[3] = test system: Rat aortic endothelial cells (RAEC); assay: Endothelial cell adhesion on RNT-coated titanium; conditions: coated on Ti, 4 h, FIG. 9
Method: as §1, §2, §3

lysine-arginine-serine-argine (KRSR) [KRSR peptide]
fibroblast adhesion compared to uncoated Ti [1]: did not enhance fibroblast adhesion
osteoblast adhesion (in words) [2]: promoted more osteoblast cell adhesion relative to uncoated Ti
endothelial cell adhesion / density [3]: did not enhance endothelial cell adhesion
